Earlier results on one compound are cited in patent publication US6426091B1, “Sustained-release theophylline tablet” (Nikken Chemicals Co., Ltd., priority 1997, dated 2002).

With `Cn1c(=O)c2[nH]cnc2n(C)c1=O` [Theophylline], the biological half-life result (adults) is recorded as “about 6 hours”. Also, the “concentration in the blood above which serious side effects (cardiovascular system, central nervous system) sometimes appear” value (background art) is “exceeds 20 μg/ml”.
